# Test results published in US4888431A, “Process for the preparation of substituted fused tetrahydrocarbazole acetic acid derivatives” (American Home Products Corporation, priority 1989, dated 1989).
# Legend:
# Male Swiss albino mice = assay: Drug Effects on Phenylbenzoquinone-induced Writhing in Mice; format: in vivo; details: 10 mg/kg, p.o., PBQ i.p. 60 minutes after dosing, writhes counted over 15 minutes
# Procedure: A further test used to determine the utility of the compounds of the present invention is designated: Drug Effects on Phenylbenzoquinone-induced Writhing in Mice
# The objective of this test is to determine the ability of test drugs to inhibit the nociceptive (pain) response of mice injected with a chemical irritant. This test is a primary screen for both peripheral and centrally acting analgesic drugs.
# Male Swiss albino mice (15-25 g) are used. The animals are fasted for 18 hours prior to use but have free access to water.
# Drugs are dissolved or suspended according to their solubility in 0.5% Tween 80 in distilled water. They are administered by gastric gavage in a volume of 5 mL/kg. For primary screening all drugs are administered at the arbitary dosage of 25 mg/kg, p.o. to a group of 10 mice.
# A modification of the method of Siegmund et al, Proc. Soc. Exp. Biol. Med., 95, 729-731 (1957) is used. Groups of 5 mice are dosed with the test compound or vehicle control. Sixty minutes later the animals are injected i.p. with 0.3 mL/20 g body weight of a 0.02% solution of phenylbenzoquinone (PBQ; 2-phenyl-1,4-benzoquinone) and placed in individual observation boxes. The number of writhing or abdominal squirming movements made by each mouse during the following 15 minute period is counted. The experiment is repeated with another group of 5 mice and the mean number of writhes per mouse for a group of 10 mice is calculated.
# Drug treated and vehicle-treated control groups are compared and the percentage inhibition of writhing conferred by the drug is calculated: [formula] where c=mean number of writhes in the control group where t=mean number of writhes in the test drug group
# Male Sprague Dawley rats = assay: Preventative Adjuvant Edema (acute anti-inflammatory effect, hind paw edema volume); format: in vivo; details: 25 mg/kg, p.o., edema volume day 0 to day 3
# Procedure: This test is a primary screen for anti-inflammatory drugs.
# Male Sprague Dawley rats (180-200 g) are used. The animals have free access to water but food is withdrawn 18 hours before testing.
# Freund's complete adjuvant is prepared by suspending 5 mg of killed and dried Mycobacterium butyricum (Difco) in 1 ml liquid paraffin. The test compounds are dissolved in distilled water or suspended in 0.5% Tween 80 in distilled water according to their solubility. For primary screening all drugs are administered by gastric lavage at the arbitrary dosage of 25 mg/kg, p.o. in a volume of 0.5 mL/100 g body weight to groups of 10 animals.
# The method is essentially that described by Wax et al, J. Pharmacol. Exp. Ther., 192, 166-171 (1975). Groups of rats are injected intradermally in the left hind paw with 0.1 mL of Freund's complete adjuvant. The test compound or vehicle is administered immediately before the adjuvant, 24 hours and 48 hours after the adjuvant (days 0, 1 and 2). The injected hind paw volume is measured before the injection of adjuvant and 24 hours after the last drug administration (day 3) by means of a plethysmometer (Buxco Electronics Inc.). The difference between the hind paw volume on day 0 and day 3 represents the edema volume. Etodolac (25 mg/kg, p.o.) is included as a positive control.
# The mean edema volume (expressed as mL ±SEM) is calculated for each group and the percentage inhibition of inflammation conferred by the drug is calculated: [formula] where c is the mean edema volume for the untreated controls and t is the mean edema volume for the drug treated group.
structure (smiles),measurement,setting,value
"Cc1c(Cl)ccc2c3c([nH]c12)[C@]1(CC(=O)O)CC[C@@H]1CC3Cc1ccccc1 (relative stereo) [Example 1, cis-7-Chloro-1,2,2a,3,4,9-hexahydro-8-methyl-4-(phenylmethyl)-9bH-cyclobuta[a]carbazole-9b-acetic Acid]",inhibition (Phenylbenzoquinone Writhing in Mice),Male Swiss albino mice,73%
same,inhibition (Preventative Adjuvant Edema),Male Sprague Dawley rats,26%
"O=C(O)C[C@]12CC[C@H]1CCc1c2[nH]c2ccccc12 (relative stereo) [Example 4, cis-1,2,2a,3,4,9-Hexahydro-9bH-cyclobuta[a]carbazole-9b-acetic Acid]",inhibition (Phenylbenzoquinone Writhing in Mice),Male Swiss albino mice,21%
same,inhibition (Preventative Adjuvant Edema),Male Sprague Dawley rats,64%
"O=C(O)C[C@@]12CC[C@@H]1CC(Cc1ccccc1)c1c2[nH]c2ccccc12 (relative stereo) [Example 7, cis-1,2,2a,3,4,9-Hexahydro-4-(phenylmethyl)-9bH-cyclobuta[a]carbazole-9b-acetic Acid]",inhibition (Phenylbenzoquinone Writhing in Mice),Male Swiss albino mice,0%
"CCc1cccc2c3c([nH]c12)[C@]1(CC(=O)O)C[C@@H]1CC3 (relative stereo) [Example 6, (1a. α,8b. α)-7-Ethyl-1,1a,2,3,8,8b-hexahydrocyclopropa[a]carbazole-8b-acetic Acid]",inhibition (Phenylbenzoquinone Writhing in Mice),Male Swiss albino mice,27%
same,inhibition (Preventative Adjuvant Edema),Male Sprague Dawley rats,13%
"Cc1c(Cl)ccc2c3c([nH]c12)[C@@]1(CC(=O)O)CC[C@H]1CC3 (relative stereo) [Example 2, cis-7-Chloro-1,2,2a,3,4,9-hexahydro-8-methyl-9bH-cyclobuta[a]carbazole-9b-acetic Acid]",inhibition (Phenylbenzoquinone Writhing in Mice),Male Swiss albino mice,56%
same,inhibition (Preventative Adjuvant Edema),Male Sprague Dawley rats,85%
"CCCc1cc(C(C)=O)cc2c3c([nH]c12)[C@@]1(CC(=O)O)CC[C@H]1CC3 (relative stereo) [Example 5, cis-6-Acetyl-1,2,2a,3,4,9-hexahydro-8-propyl-9bH-cyclobuta[a]carbazole-9b-acetic Acid]",inhibition (Phenylbenzoquinone Writhing in Mice),Male Swiss albino mice,56%
